In assay [1] the test system is porcine liver esterase (PLE). The experiment in a line: In vitro activation of rhodamine-amide pro-fluorophores by PLE (kinetic fluorescence plate assay). Type of assay: biochemical. Particulars: for conversion to the fluorescent Rhodamine 110 by PLE (in words): 10 μM, 2 min, 22° C., 30 nM PLE (FIG. 2B); for Km: Table 1, PLE activation; for quality as PLE substrate (in words): in vitro and in cells, comparison within the library. The protocol: To investigate the ability of PLE to activate various rhodamine-amide pro-fluorophores, the compounds were dissolved in DMSO to a concentration of 100 mM and serially diluted in DMSO in 10, 3-fold steps. The compounds were then added to the well of a low volume, cyclic olefin copolymer 384-well plate (Labcyte). Forty nL/well of pro-fluorophore solution were transferred to black-walled, clear-bottom, polystyrene 384-well plates (Greiner) using an Echo plate reformatter (Labcyte). Following compound transfer, […] of phosphate-buffered saline (PBS) was added to each well and thoroughly mixed. PLE (Sigma, 46058) dissolved in PBS at a concentration of 60 nM and 40 μL of this solution was added to the wells of a polypropylene 384-well plate (Greiner). Pro-fluorophore-containing and PLE-containing plates were placed in a Panoptic kinetic imaging plate reader (WaveFront Biosciences). Images were acquired at 1 Hz (excitation 480±20 nm and 540±30 nm) for 30 seconds, then 20 μL/well of the PLE solutions were added to the pro-fluorophore-containing plates and imaging continued for an additional 15 minutes. In addition to the pro-fluorophore-containing plates, a plate containing PBS only was imaged as was a plate containing a concentration series of Rhodamine 110.

For assay [2], the system named is HEK293 cells stably expressing PLE. Put plainly: Pro-fluorophore activation in PLE-expressing HEK293 cells (kinetic imaging plate reader). Type of assay: cell-based. Particulars: for rank of fold increase in fluorescence in cells (in words) / Fold Increase in Fluorescence: 10 μM; for rank of fold increase in fluorescence in cells (in words): PLE-expressing vs wild-type HEK293 (Table 2); for Fold Increase in Fluorescence: PLE-expressing HEK293 divided by wild-type HEK293, 5 min after addition, mean (SEM) of 4 replicates. The source says: Cell-based assays. To construct a PLE-expressing HEK293 cell line, a PLE-IRES-mCherry construct was excised from the pCAG-PLE-IRES-mCherry (Addgene plasmid #45766) vector using Not1-HF and Xho1 (Tian et al., Proceedings of the National Academy of Sciences, 2012, 109, 4756-4761). The PLE-IRES-mCherry insert was then cloned into pcDNA3.1/Zeo vector (Thermo Fisher Scientific). The pcDNA3.1/Zeo PLE-IRES-mCherry vector was introduced to HEK293 (ATCC) using FuGENE HD (Promega). PLE-expressing cells were selected for using Zeocin.
(§1) Wild-type HEK293 and PLE-expressing HEK293 cells maintained in α-MEM (Corning) containing 10% vol/vol fetal bovine serum (Thermo-Fisher Scientific) and 1% vol/vol GlutaGro (Corning) (cell culture medium) were seeded with 20,000 cells/well in 20 μL of cell culture medium into amine-coated, clear-bottom, and black-walled 384-well plate (BD Biosciences). Plates were then incubated overnight at 37° C. in a 5% CO2 cell culture incubator. Following overnight incubation, cell culture medium was removed and replaced with 20 μL/well assay buffer. Rhodamine-amide profluorophores dissolved in DMSO at 10 mM were diluted into assay buffer at concentrations ranging from 50 μM-70 nM. Forty μL/well of pro-fluorophore solutions were placed in polypropylene 384-well plates (Greiner). Immediately before the beginning of data acquisition, the assay buffer was removed from the cell-containing plates. The cell-containing and pro-fluorophore containing plates where then immediately loaded into a Panoptic kinetic imaging plate reader. Images were acquired at 1 Hz (excitation 480±20 nm and 540±30 nm) for 30 seconds, then 20 μL/well of the pro-fluorophore solutions were added to the cell-containing plates and imaging continued for an additional 15 minutes.

For assay [3], the system named is wild-type HEK293 cells. Put plainly: Pro-fluorophore activation in wild-type HEK293 cells (kinetic imaging plate reader). It is filed as cell-based. Particulars: 3 μM (FIG. 3A). The protocol: as §1
Assay [4] deals with HEK293 cells expressing PLE. The experiment in a line: Confocal fluorescence microscopy of PLE-expressing HEK293 cells. It is filed as cell-based. The conditions noted are these: treated 1 h at 22° C. (FIG. 4 panels a-c). The protocol:
(§2) Microscopy. Confocal images were acquired using a Nikon MR (Nikon Instruments) laser scanning confocal microscope equipped with plan apochromat violet corrected 1.4 numerical aperture (N.A.) oil immersion lens. Hoescht images were obtained using a 405 nm laser and 425-475 nm emission filter. Pro-fluorophore (1c) was imaged using a 488 nm laser and 500-550 nm emission filter. Cells for imaging study were cultured overnight on no. 1 chambered slides (lab-tek II, ThermoFisher) in medium previously described in kinetic imaging assays. Medium was removed and pro-fluorophore was added to the slide chambers in assay buffer containing Hoescht, 1 μg/mL. […]

For assay [5], the system named is wild-type HEK293 cells. The experiment in a line: Confocal fluorescence microscopy of wild-type HEK293 cells. It is filed as cell-based. Particulars: treated 1 h at 22° C. (FIG. 4 panels d-f). The protocol:
as §2

The mark [6] stands for this setting: listed as N,N′-dipropionyl rhodamine.

Each structure is given as a SMILES string. “Also recorded” adds a separate entry of the source.

For `O=C1OC2(c3ccc(NC(=O)C(F)(F)F)cc3Oc3cc(NC(=O)C(F)(F)F)ccc32)c2ccccc21` [Compound 1a, N,N′ bis-triflouroacetyl rhodamine], in assay [1], the “conversion to the fluorescent Rhodamine 110 by PLE (in words)” value is “most effective conversion”, the Km (commonly the concentration of substrate that gives half-maximal velocity) is 2.06 µM and the “quality as PLE substrate (in words)” value is on record as “good PLE substrates”. Further, the “quality as PLE substrate (in words)” value in assay [1] (listed as N,N′-ditrifluoroacetyl) is given as “better substrates than the others”. For the same molecule, in assay [2], the “rank of fold increase in fluorescence in cells (in words)” value (“rank of fold increase in fluorescence” for short) is recorded as “largest fold increase in fluorescence” and the “Fold Increase in Fluorescence” value was 5701 (±26.4). For the same molecule, the “rank of fold increase in fluorescence” value in assay [2] (listed as N,N′-ditrifluoroacetyl rhodamine) is reported as “largest increase in fluorescence”.

As for `CC(=O)Nc1ccc2c(c1)Oc1cc(NC(C)=O)ccc1C21OC(=O)c2ccccc21` [Compound 1b, N,N′-bis-acetyl rhodamine], in assay [1], the “quality as PLE substrate (in words)” value is listed as “less preferred substrate; also recorded: poor substrate”. In addition, the “Fold Increase in Fluorescence” value in assay [2] was 37 (±0.2).

On to `CCC(=O)Nc1ccc2c(c1)Oc1cc(NC(=O)CC)ccc1C21OC(=O)c2ccccc21` [Compound 1c, N,N′-bis-propionyl rhodamine], for which the “conversion to the fluorescent Rhodamine 110 by PLE (in words)” value in assay [1] was “most effective conversion”. Besides, the figures for the “quality as PLE substrate (in words)” value in assay [1] and in assay [1] (setting [6]) were “good PLE substrates” and “better substrates than the others”, respectively. Further, the “fluorescence upon addition to PLE-expressing HEK293 cells (in words)” value in assay [2] (3 μM, 384-well plate (FIG. 3A)) is recorded as “rapid increase in fluorescence”. Also, the “rank of fold increase in fluorescence” value in assay [2] was “largest fold increase in fluorescence”. For the same molecule, the “Fold Increase in Fluorescence” value in assay [2] is given as 725 (±2.1). Also, the “fluorescence upon addition to wild-type HEK293 cells (in words)” value in the assay on wild-type HEK293 cells [3] was “no increase in fluorescence was observed”. The “confocal fluorescence in PLE-expressing HEK293 cells (in words)” value in assay [4] is recorded as “bright, predominantly cytoplasmic, fluorescence”; in assay [4] (setting [6]), “bright, cytoplasmic fluorescence”. The “confocal fluorescence in wild-type HEK293 cells (in words)” value in the assay with wild-type HEK293 cells [5] was “no fluorescence was observed”.

With `CC(C)C(=O)Nc1ccc2c(c1)Oc1cc(NC(=O)C(C)C)ccc1C21OC(=O)c2ccccc21` [Compound 1d, N,N′-bis-isobutyl rhodamine], the “Fold Increase in Fluorescence” value in assay [2] is 458 (±1.6).

For `CC(C)(C)C(=O)Nc1ccc2c(c1)Oc1cc(NC(=O)C(C)(C)C)ccc1C21OC(=O)c2ccccc21` [Compound 1e, N,N′-bis-pivaloyl rhodamine], in assay [2], the “Fold Increase in Fluorescence” value is on record as 87 (±0.4).

For the molecule `O=C(Nc1ccc2c(c1)Oc1cc(NC(=O)c3ccccc3)ccc1C21OC(=O)c2ccccc21)c1ccccc1` [Compound 1f, N,N′-bis-benzoyl rhodamine], in assay [1], the Km is 7.45 µM. Moreover, the “Fold Increase in Fluorescence” value in assay [2] is reported as 119 (±1.2).

These data come from patent publication US11104926B1, “Pro-fluorophore compounds and use thereof” (Vanderbilt University, priority 2018, dated 2021).
